We go through three compounds from patent US20210017607A1, “Methods of Predicting Responsiveness to Cancer Therapies” (The University of Chicago, priority 2019, published 2021).

The test system of one assay is Pi3K enzymatic activity. Kind of assay: Intratumoral target inhibition by western blotting. It is filed as in vivo, mouse. The conditions noted are these: B6-Myc and Myc-CAP tumors; 30 mg/kg oral gavage daily 7 days. As to the method: (§1) FIGS. 18A and 18B. Buparlisib and Rucaparib inhibit intratumoral Pi3K and PARP enzymatic activity, respectively, within B6-Myc (STING^hi) and Myc-CAP (STING^lo) tumors. Subcutaneous Myc-CAP (STING^lo) and B6-Myc (STING^hi) tumors at 400-500 mm^3 volumes were treated with either buparlisib (pan-PI3K inhibitor, 30 mg/kg) or rucaparib (PARP inhibitor, 150 mg/kg) by oral gavage daily for 7 days. At end of treatment, both (18A) B6-Myc (STING^hi) and (18B) Myc-CAP (STING^lo) tumors were harvested and protein extracts utilized for assessment of target inhibition with the indicated antibodies by western blotting. n=2 mice per treatment group.
(§2) Western Blot Analysis. RIPA and T-PER buffer (Thero Scientific®), supplemented with protease (Roche®) and HALT phosphatase inhibitor cocktail (Roche®), were used for preparation of lysates from in vitro cell lines and whole tumor chunks, respectively. For western blotting, the following antibodies were used from Cell Signaling Technology®: Polyclonal rabbit anti-mouse-phospho-γH2AX, phospho-AKT, total AKT, cGAS, STING, phospho-IRF3, total IRF3, phospho-TBK1, total TBK1, PTEN, β-actin and GAPDH. Monoclonal anti-mouse PAR antibody was obtained from Trevigen®. Images of scanned blots were processed using ADOBE Photoshop®.

For another assay, the system named is PARP enzymatic activity. The assay is described as follows: Intratumoral target inhibition by western blotting. The conditions noted are these: B6-Myc and Myc-CAP tumors; 150 mg/kg oral gavage daily 7 days. Format: in vivo, mouse. As for the experimental part:
as §1, §2

Assay [1] relates to Myc-CAP-PTEN-deficient cancer cells. The assay is described as follows: Exosome dsDNA content by Nanodrop. Format: cell-based, mouse. Particulars: rucaparib 36 hours. As for the experimental part:
FIGS. 40A and 40B. […] Isogenic PTEN-proficient and CRISPR-CAS9-mediated PTEN-knockout Myc-CAP cells were treated with rucaparib for 36 hours. Exosomes were collected by ultracentrifugation and used for quantification of particle number by Nanosight (40A) and dsDNA content by Nanodrop® (40B). n=2 experiments.
FIGS. 41A and 41B. […] Exosomes were collected by ultracentrifugation and used for quantification of particle number by Nanosight (41A) and dsDNA content by Nanodrop® (41B). n=2 experiments.
Microvesicle Isolation (MVs)/DNA extraction. Cells were treated for 36 hours with the indicated drugs, and supernatants were harvested and then centrifuged at 300×g for 5 minutes at 4° C. to pellet cells, This was followed by additional centrifugation steps at 2,000×g for 10 min at 4° C. to eliminate dead cell debris and at 10,000×g for 30 min in at 4° C. to remove larger vesicles. The supernatant was then collected and subjected to 100,000×g centrifugation in a Type 60 Ti rotor (38000 rpm) for 70 min at 4 ° C. […] The final EV pellet was collected in 1×PBS and used for quantification. […] Equal numbers of EVs were collected from each treatment group and DNA was extracted using Trizol® LS as per protocol (Thermo Fischer Scientific®) and then quantified using Nanodrop®.

Assay [2] relates to cGAS/STING signaling pathway components p-TBK1 and p-IRF3. Kind of assay: Western blotting of cGAS/STING pathway activation. Format: cell-based, mouse. As for the experimental part: FIGS. 15A-15E. Differential STING pathway activation within B6-Myc (STING^hi) cell lines and BMDMs relative to Myc-CAP (STING^lo) cells. (15A, 15B) The indicated cancer cell lines and BMDMs were treated with DMXAA (mouse STING agonist) for 1 and 24 hours, respectively, and protein extracts were interrogated for cGAS/STING pathway activation with the indicated antibodies by Western blotting. Supernatants were collected from for IFNβ1 ELISA following 36 hours of treatment with DMXAA (15C, 15D). (15E) Syngeneic Myc-CAP (STING^lo) tumors were processed into single cell suspensions and used for phycoerythrin-based sorting of CD45+ cellular fractions. Equal numbers of cells from these fractions were stimulated with DMXAA. Supernatants were collected at 36 hrs for detection of IFNB1 by ELISA; n=3 independent experiments; Significance/p-values were calculated by one-way Anova (for 15C & 15E) or paired t-test (for 15D); TAM=tumor associated macrophage; s.e.=short exposure; l.e.=long exposure.
as §2

In the case of `Nc1cc(C(F)(F)F)c(-c2cc(N3CCOCC3)nc(N3CCOCC3)n2)cn1` [buparlisib], in the assay with Pi3K enzymatic activity, the “intratumoral Pi3K enzymatic activity” value is “inhibit”.
As for `CNCc1ccc(-c2[nH]c3cc(F)cc4c3c2CCNC4=O)cc1` [rucaparib], the “intratumoral PARP enzymatic activity” value with PARP enzymatic activity is “inhibit”. In addition, the “exosomal dsDNA content relative to PTEN-proficient counterparts” value in assay [1] (CRISPR-CAS9 PTEN-knockout) and in assay [1] (siRNA PTEN-knockdown) was “significantly reduced dsDNA content” throughout.
With `Cc1ccc2c(=O)c3cccc(CC(=O)O)c3oc2c1C` [DMXAA, 5,6-Dimethylxanthenone-4-acetic Acid], the “activation of p-TBK1 and p-IRF3” value in assay [2] (B6-Myc (STING^hi) cells) is “activated”; in assay [2] (Myc-CAP (STING^lo) cells), “not observed”. The “activation of c-GAS/STING signaling pathway” value in assay [2] (BMDMs) is on record as “activated the c-GAS/STING signaling pathway”.
